Biological target: T1, XynB2 (Geobacillus stearothermophilus, UniProt Q09LZ0, Y509E)
T1 construct: recombinant in E. coli C43 from plasmid pJAVI100 (template pJAVI91); semi-purified by heat treatment (45 °C, 30 min) and dialysis; all rows Y509E
Experiment: p-nitrophenol release at […] nm, hyperbolic fit
Format: biochemical
Settings: free semi-purified (heat-treated extract) enzyme; 100 mM citrate phosphate-glycine buffer, pH 6.5, 50 °C

T1 sequence (Q09LZ0 entry or part of it Y509E): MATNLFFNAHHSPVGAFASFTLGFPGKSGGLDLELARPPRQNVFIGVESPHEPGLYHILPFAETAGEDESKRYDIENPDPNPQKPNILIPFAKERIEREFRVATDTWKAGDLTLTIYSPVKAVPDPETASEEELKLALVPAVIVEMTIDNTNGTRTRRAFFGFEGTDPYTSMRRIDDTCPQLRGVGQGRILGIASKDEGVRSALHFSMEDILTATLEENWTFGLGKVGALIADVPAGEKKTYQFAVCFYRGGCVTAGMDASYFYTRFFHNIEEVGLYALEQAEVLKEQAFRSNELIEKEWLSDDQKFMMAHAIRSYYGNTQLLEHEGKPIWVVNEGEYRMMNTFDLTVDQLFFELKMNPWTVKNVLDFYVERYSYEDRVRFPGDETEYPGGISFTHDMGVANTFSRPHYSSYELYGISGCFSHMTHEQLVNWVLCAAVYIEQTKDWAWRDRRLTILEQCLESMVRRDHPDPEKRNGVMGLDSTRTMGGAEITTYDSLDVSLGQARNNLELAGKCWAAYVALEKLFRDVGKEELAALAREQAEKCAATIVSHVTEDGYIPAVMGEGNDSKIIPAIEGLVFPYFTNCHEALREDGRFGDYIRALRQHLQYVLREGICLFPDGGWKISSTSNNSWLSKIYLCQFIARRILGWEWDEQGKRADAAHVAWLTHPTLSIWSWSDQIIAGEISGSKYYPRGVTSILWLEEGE

Km: 900 ± 100 µM
SMILES: O=[N+]([O-])c1ccc(O[C@@H]2OC[C@@H](O)[C@H](O)[C@H]2O)cc1 [p-nitrophenyl-β-d-xylopyranoside]

From PMC7830863, “Characterization of Cross-Linked Enzyme Aggregates of the Y509E Mutant of a Glycoside Hydrolase Family 52 β-xylosidase from G. stearothermophilus” (Molecules, 2021)
